pEC50, pIC50: −log10 of the molar value. Where two headings read alike, the source gives them in different places.
How the values were obtained:
[1] = tested on: 229E human corona virus (hCoV); assay: 229E Live Virus Assay (MRC-5 cells, CPE, ATPlite readout); type: cell-based, hCoV-229E; conditions: Human coronavirus 229E, MRC5, 144 h, read-out: 229E EC50; for EC50: MRC-5 cells, hCoV-229E MOI 0.05, 6 days at 34° C., ATPlite, duplicate, ranges defined in μM
[2] = biological target: SARS-CoV-2 3CL-protease (Severe acute respiratory syndrome coronavirus 2 (2019-nCoV) (SARS-CoV-2), UniProt P0DTD1); assay: SARS-CoV-2 3C-Like (3CL) Protease Fluorescence Assay (FRET); type: biochemical

| SMILES | pEC50 [1] | pIC50 [2] | EC50 [1] [µM] |
| --- | --- | --- | --- |
| COC(=O)N[C@@H](CC1CC1)C(=O)N(C)[C@@H](CC(C)C)C(=O)N1C[C@]2(C[C@H]1C#N)C(=O)Nc1ccccc12 [Example 16] | > 7.00 | > 7.00 |  |
| CN(C(=O)[C@H](CC1CC1)NS(=O)(=O)c1ccn(-c2ccc(F)cc2)n1)[C@@H](CC(C)(C)C)C(=O)N1C[C@]2(C[C@H]1C#N)C(=O)Nc1ccccc12 [Example 70] | > 7.00 | > 7.00 |  |
| [2H]C([2H])([2H])N(C(=O)[C@H](CC1CC1)NC(=O)C(F)(F)F)[C@@H](Cc1ccc(F)cc1)C(=O)N1C[C@]2(C[C@H]1C#N)C(=O)Nc1ccccc12 [Example 74] | > 7.00 | > 7.00 |  |
| CC(C)C[C@@H](C(=O)N1C[C@]2(C[C@H]1C#N)C(=O)Nc1ccccc12)N(C)C(=O)[C@@H](NC(=O)OCc1ccccc1)C(C)C [Example 49] | > 7.00 | > 7.00 |  |
| CN(C(=O)[C@H](CC1CC1)NC(=O)C1CC1)[C@@H](CC(C)(C)C)C(=O)N1C[C@]2(C[C@H]1C#N)C(=O)Nc1ccccc12 [Example 76] | > 7.00 | > 7.00 |  |
| CC(C)C[C@@H](C(=O)N1C[C@]2(C[C@H]1C#N)C(=O)Nc1ccccc12)N1CC[C@H](NC(=O)OC(C)(C)C)C1=O [Example 10] |  | 6.00 to 7.00 | 0.1 to 1 |
| CC(C)C[C@@H](C(=O)N1C[C@]2(C[C@H]1C#N)C(=O)Nc1ccccc12)N(C)C(=O)[C@H](CC1CCC1)NC(=O)OCc1ccccc1 [Example 24] | > 7.00 | > 7.00 |  |
| CN(C(=O)[C@H](Cc1ccc(F)cc1)NC(=O)C1CCC1)[C@@H](CC(C)(C)C)C(=O)N1C[C@]2(C[C@H]1C#N)C(=O)Nc1ccccc12 [Example 64] | > 7.00 | > 7.00 |  |
| CC(C)C[C@@H](C(=O)N1C[C@]2(C[C@H]1C#N)C(=O)Nc1ccccc12)N(C)C(=O)[C@@H](NC(=O)OCc1ccccc1)C(C)(C)C [Example 11] | 6.00 to 7.00 | > 7.00 |  |
| CC(C)C[C@@H](C(=O)N1C[C@]2(C[C@H]1C#N)C(=O)Nc1ccccc12)N(C)C(=O)[C@H](CC1CC1)NC(=O)c1ccc(F)cc1 [Example 17] | > 7.00 | > 7.00 |  |
| [2H]C([2H])([2H])N(C(=O)[C@H](CC1CC1)NC(=O)C(F)(F)F)[C@@H](CC1CC1)C(=O)N1C[C@]2(C[C@H]1C#N)C(=O)Nc1ccccc12 [Example 134] | > 7.00 | > 7.00 |  |
| CC(C)[C@@H](NC(=O)c1cc2c(F)cc(F)c(F)c2[nH]1)C(=O)N[C@@H](CC(C)(C)C)C(=O)N1C[C@]2(C[C@H]1C#N)C(=O)Nc1ccccc12 [Example 93] | < 6.00 | < 6.00 |  |
| Cc1cc(C(=O)N[C@@H](Cc2ccc(F)cc2)C(=O)N(C)[C@@H](CC(C)C)C(=O)N2C[C@]3(C[C@H]2C#N)C(=O)Nc2ccccc23)no1 [Example 4] |  | > 7.00 | < 0.1 |
| CN(C(=O)[C@H](Cc1ccc(F)cc1)N1CCCC1=O)[C@@H](CC(C)(C)C)C(=O)N1C[C@]2(C[C@H]1C#N)C(=O)Nc1ccccc12 [Example 67] | > 7.00 | > 7.00 |  |
| CC(C)OC(=O)N[C@@H](CC1CC1)C(=O)N(C)[C@@H](CC(C)(C)C)C(=O)N1C[C@]2(C[C@H]1C#N)C(=O)Nc1ccccc12 [Example 121] | > 7.00 | > 7.00 |  |
| CC(C)[C@H](NC(=O)c1cc(F)c(F)c(F)c1)C(=O)N(C)[C@@H](CC(C)(C)C)C(=O)N1C[C@]2(C[C@H]1C#N)C(=O)Nc1ccccc12 [Example 108] | 6.00 to 7.00 | > 7.00 |  |
| CC(C)C[C@@H](C(=O)N1C[C@]2(C[C@H]1C#N)C(=O)Nc1ccccc12)N(C)C(=O)[C@@H](NC(=O)C(F)(F)F)C(C)(C)C [Example 12] | 6.00 to 7.00 | > 7.00 |  |
| CC(C)C[C@@H](C(=O)N1C[C@]2(C[C@H]1C#N)C(=O)Nc1ccccc12)N(C)C(=O)[C@H](CC(C)(C)C)N(C)C(=O)OCc1ccccc1 [Example 32] | > 7.00 | > 7.00 |  |
| CN(C(=O)[C@H](CC1CC1)NS(=O)(=O)C1CC1)[C@@H](CC(C)(C)C)C(=O)N1C[C@]2(C[C@H]1C#N)C(=O)Nc1ccccc12 [Example 82] | > 7.00 | > 7.00 |  |
| CN(C(=O)[C@H](Cc1ccc(F)cc1)NC(=O)OCc1ccccc1)[C@@H](CC(C)(C)C)C(=O)N1C[C@]2(C[C@H]1C#N)C(=O)Nc1ccccc12 [Example 5] | > 7.00 | > 7.00 |  |
| CC(=O)N[C@H](C(=O)N[C@@H](CC(C)(C)C)C(=O)N1C[C@]2(C[C@H]1C#N)C(=O)Nc1ccccc12)C(C)C [Example 88] | 6.00 to 7.00 | 6.00 to 7.00 |  |
| CC(C)C[C@@H](C(=O)N1C[C@]2(C[C@H]1C#N)C(=O)Nc1ccccc12)N(C)C(=O)[C@H](CC1CC1)NC(=O)OCc1ccccc1 [Example 14] | > 7.00 | > 7.00 |  |
| CN(C(=O)[C@H](Cc1ccc(F)cc1)NC(=O)C1COC1)[C@@H](CC(C)(C)C)C(=O)N1C[C@]2(C[C@H]1C#N)C(=O)Nc1ccccc12 [Example 65] | > 7.00 | > 7.00 |  |
| CC(C)[C@H](NC(=O)C(F)(F)F)C(=O)N[C@@H](CC(C)(C)C)C(=O)N1C[C@]2(C[C@H]1C#N)C(=O)Nc1ccccc12 [Example 90] | 6.00 to 7.00 | > 7.00 |  |

| SMILES | pEC50 [1] | pIC50 [2] | EC50 [1] [µM] |
| --- | --- | --- | --- |
| CN(C(=O)[C@H](CC1CC1)N1CCOC1=O)[C@@H](CC(C)(C)C)C(=O)N1C[C@]2(C[C@H]1C#N)C(=O)Nc1ccccc12 [Example 72] | > 7.00 | > 7.00 |  |
| COC(=O)N[C@H](C(=O)N(C)[C@@H](CC(C)C)C(=O)N1C[C@]2(C[C@H]1C#N)C(=O)Nc1ccccc12)C1CCCCC1 [Example 23] | 6.00 to 7.00 | > 7.00 |  |
| CC(C)C[C@H](NC(=O)[C@@H](NC(=O)OCc1ccccc1)C(C)(C)C)C(=O)N1C[C@]2(C[C@H]1C#N)C(=O)Nc1ccccc12 [Example 36] | 6.00 to 7.00 | > 7.00 |  |
| CC(C)C[C@@H](C(=O)N1C[C@]2(C[C@H]1C#N)C(=O)Nc1ccccc12)N(C)C(=O)[C@H](CC1CCC1)NC(=O)c1ccc(F)cc1 [Example 35] | > 7.00 | > 7.00 |  |
| CN(C(=O)[C@H](CC1CC1)NC(=O)N1CCOCC1)[C@@H](CC(C)(C)C)C(=O)N1C[C@]2(C[C@H]1C#N)C(=O)Nc1ccccc12 [Example 83] | > 7.00 | > 7.00 |  |
| CC(=O)N[C@@H](C(=O)N[C@@H](CC(C)(C)C)C(=O)N1C[C@]2(C[C@H]1C#N)C(=O)Nc1ccccc12)C(C)C [Example 89] | 6.00 to 7.00 | 6.00 to 7.00 |  |
| CC(C)C[C@@H](C(=O)N1C[C@]2(C[C@H]1C#N)C(=O)Nc1ccccc12)N(C)C(=O)[C@H](CC1CCC1)NC(=O)c1cc2c(F)cc(F)c(F)c2[nH]1 [Example 45] | 6.00 to 7.00 | > 7.00 |  |
| CN(C(=O)[C@H](Cc1ccc(F)cc1)NC(=O)C(F)(F)F)[C@@H](CC(C)(C)C)C(=O)N1C[C@]2(C[C@H]1C#N)C(=O)Nc1ccccc12 [Example 6] |  | > 7.00 | < 0.1 |
| CC(C)C[C@@H](C(=O)N1C[C@]2(C[C@H]1C#N)C(=O)Nc1ccccc12)N(C)C(=O)[C@H](Cc1ccc(F)cc1)NC(=O)OCc1ccccc1 [Example 1] | > 7.00 | > 7.00 |  |
| CC(C)C[C@@H](C(=O)N1C[C@]2(C[C@H]1C#N)C(=O)Nc1ccccc12)N(C)C(=O)[C@H](CC(C)(C)C)NC(=O)c1ccc(F)cc1 [Example 34] | > 7.00 | > 7.00 |  |
| [2H]C([2H])([2H])N(C(=O)[C@H](CC1CC1)NC(C)=O)[C@@H](Cc1ccc(F)cc1)C(=O)N1C[C@]2(C[C@H]1C#N)C(=O)Nc1ccccc12 [Example 73] | > 7.00 | > 7.00 |  |
| CC(C)C[C@@H](C(=O)N1C[C@]2(C[C@H]1C#N)C(=O)Nc1ccccc12)N1CC[C@H](NC(=O)C(F)(F)F)C1=O [Example 50] | < 6.00 | 6.00 to 7.00 |  |
| CN(C(=O)[C@@H](N)C(C)(C)C)[C@@H](Cc1ccccc1)C(=O)N1C[C@]2(C[C@H]1C#N)C(=O)Nc1ccccc12 [Example 29] | 6.00 to 7.00 | > 7.00 |  |
| CN(C(=O)[C@H](CC1CC1)NC(=O)C(F)(F)F)[C@@H](CC(C)(C)C)C(=O)N1C[C@]2(C[C@H]1C#N)C(=O)Nc1ccccc12 [Example 75] | > 7.00 | > 7.00 |  |
| CC(=O)N[C@H](Cc1cc(F)c(F)cc1F)C(=O)N(C)[C@@H](CC(C)(C)C)C(=O)N1C[C@]2(C[C@H]1C#N)C(=O)Nc1ccccc12 [Example 114] | > 7.00 | > 7.00 |  |
| CC(=O)N(C)[C@@H](CC(C)(C)C)C(=O)N(C)[C@@H](CC(C)C)C(=O)N1C[C@]2(C[C@H]1C#N)C(=O)Nc1ccccc12 [Example 44] | 6.00 to 7.00 | > 7.00 |  |
| CC(C)C[C@@H](C(=O)N1C[C@]2(C[C@H]1C#N)C(=O)Nc1ccccc12)N(C)C(=O)C(NC(=O)OCc1ccccc1)c1ccccc1 (stereo partly shown) [Example 22] | > 7.00 | > 7.00 |  |
| CC(C)C[C@@H](C(=O)N1C[C@]2(C[C@H]1C#N)C(=O)Nc1ccccc12)N(C)C(=O)C1(NC(=O)OCc2ccccc2)CCCC1 [Example 115] | 6.00 to 7.00 | > 7.00 |  |
| CC(C)C[C@@H](C(=O)N1C[C@]2(C[C@H]1C#N)C(=O)Nc1ccccc12)N(C)C(=O)[C@H](CC(C)(C)C)NC(=O)OCc1ccccc1 [Example 25] | > 7.00 | > 7.00 |  |
| CC(C)(C)C[C@H](NC(=O)[C@H](CC1CC1)NC(=O)OCc1ccccc1)C(=O)N1C[C@]2(C[C@H]1C#N)C(=O)Nc1ccccc12 [Example 94] | > 7.00 | > 7.00 |  |
| CC(C)C(=O)N[C@@H](CC1CC1)C(=O)N(C)[C@@H](CC(C)(C)C)C(=O)N1C[C@]2(C[C@H]1C#N)C(=O)Nc1ccccc12 [Example 80] | > 7.00 | > 7.00 |  |
| CC(=O)N[C@@H](Cc1cc(F)c(F)cc1F)C(=O)N(C)[C@@H](CC(C)(C)C)C(=O)N1C[C@]2(C[C@H]1C#N)C(=O)Nc1ccccc12 [Example 113] | > 7.00 | > 7.00 |  |
| CC(C)C[C@@H](C(=O)N1C[C@]2(C[C@H]1C#N)C(=O)Nc1ccccc12)N(C)C(=O)[C@H](Cc1ccc(F)cc1)NC(=O)c1ccn(C)n1 [Example 19] | > 7.00 | > 7.00 |  |
